Measured values: PMC3684613 (PLoS ONE, 2013)
Where two headings read alike, the source gives them in different places.

Tests used:
[1] = test system: P. falciparum 3D7; assay: DAPI stain fluorescent high content imaging assay, P. falciparum 3D7 (confirmatory screen, Avery); conditions: for EC50 / inhibition of growth at 5 µM / inhibition of growth at 2 µM: Plasmodium falciparum; for EC50: 3D7, read-out: EC50_nM; for inhibition of growth at 5 µM: 3D7, read-out: percent_inh @ 5 uM; for inhibition of growth at 2 µM: 3D7, read-out: percent_inh @ 2 uM
[2] = test system: P. falciparum 3D7; parameters: method as in ChEMBL-NTD; conditions: ref ChEMBL-NTD, cited from earlier work
[3] = original screening data, source (GSK, GNF, StJude), several values separated by ';' in order of sources
[4] = values follow the order of the source (GNF; GSK; StJude)

Row | EC50 [1] [nM] | Structure (SMILES) | inhibition of growth at 5 µM [1] [%] | further results
1 | 1010 | COCCNCC(O)Cn1c2ccc(Cl)cc2c2cc(Cl)ccc21 (stereo not drawn) [MMV019017] |  | EC50 [2, 3]: 52 nM
2 | 694 | CCn1c2c(c(=N)c3c1CCC3)CCCC2 [MMV000340] | 77 | EC50 [2, 4]: 3120 nM
3 |  | CC(C)(C)C(=O)Nc1ccc(C(=O)Nc2cccc(-c3nc4ccccc4[nH]3)c2)cc1 [MMV665879] | 91 | EC50 [2, 3]: 282 nM
4 | 1070 | O=C(NC1CCCCC1)C(c1cccs1)N(CCc1ccccc1)C(=O)c1ccco1 (stereo not drawn) [MMV666106] | 90 | EC50 ([2]; source GSK (TCMDC ids)): 1040 nM
5 | 552 | CN1C=C(c2ccc3ccccc3n2)C(c2c[nH]c3ccccc23)c2ccccc21 (stereo not drawn) [MMV008160] | 95 | EC50 [2, 4]: 1140 nM
6 | 1070 | O=C1c2ccccc2-c2nnc(-c3ccc(Br)cc3)cc21 [MMV665934] | 99 | EC50 ([2]; source GNF (GNF-Pf ids)): 2500 nM
7 | 1030 | CC(Oc1ccc(NC(=O)c2cccs2)cc1)C(=O)c1ccc(Cl)cc1 (stereo not drawn) [MMV665886] | 87 | EC50 [2, 4]: 774 nM
8 | 648 | CC1CCCCN1CCCNC(=O)c1ccc2c(c1)sc1nc(-c3ccc(F)cc3)cn12 (stereo not drawn) [MMV000634] | 98 | EC50 ([2]; source StJude): 634 nM
9 | 944 | Clc1ccc2c(N3CCCC3)ccnc2c1 [MMV007363] | 97 | EC50 [2, 3]: 283 nM
10 | 1010 | O=C(NC1CCN(Cc2ccccc2)CC1)c1cc(-c2cccnc2)nc2ccc(Cl)cc12 [MMV020490] | 91 | EC50 [2, 3]: 759 nM
11 |  | CCOc1ccccc1NC(=O)CN1CCN(C(=O)c2ccco2)CC1 [MMV007791] | 83 | EC50 [2, 3]: 5460 nM
12 | 36.7 | COc1ccc(NC(=O)C2c3ccccc3C(=O)N(CC(C)C)C2c2cccs2)cc1 (stereo not drawn) [MMV000662] | 100 | EC50 ([2]; source StJude (SJ id)): 102 nM
13 |  | FC(F)(F)c1cccc(Nc2nc(-c3ccccc3)nc3ncccc23)c1 [MMV665798] | 74 | EC50 ([2]; source GSK): 802 nM
14 | 466 | OC(CNC1CCCCC1)Cn1c2ccc(I)cc2c2cc(I)ccc21 (stereo not drawn) [MMV665882] | 97 | EC50 [2, 4]: 337 nM
15 | 23.8 | COc1cccc(C=Cc2nc(=O)c3ccccc3o2)c1OC [MMV666693] | 96 | EC50 ([2]; source GSK (TCMDC id)): 64.4 nM
16 | 1180 | COc1ccc(C2C(C(=O)Nc3cccc(OC)c3)c3ccccc3C(=O)N2C2CCCCC2)cc1 (stereo not drawn) [MMV008455] | 97 | EC50 ([2]; source GNF (GNF-Pf ids)): 1110 nM
17 | 314 | CCOC(=O)c1cnc2c(C)cccc2c1Nc1ccc(C(C)=O)cc1 [MMV006250] | 94 | EC50 ([2]; source GNF (GNF-Pf ids)): 119 nM
18 |  | O=C(Nc1ccc(Br)cc1)Nc1cccc(Cl)c1 [MMV001318] | 94 | EC50 [2, 3]: 15000 nM
19 |  | O=C(Nc1ccccc1O)c1ccc(-c2ccc(Cl)cc2Cl)o1 [MMV665948] | 97 | EC50 ([2]; source StJude): 2460 nM
20 | 697 | Cc1ccccc1OCCSc1nc2ccc(NC(=O)c3cccs3)cc2s1 [MMV007396] | 96 | EC50 ([2]; source GNF (GNF-Pf ids)): 497 nM

Row | EC50 [1] [nM] | Structure (SMILES) | inhibition of growth at 5 µM [1] [%] | further results
21 | 603 | CC(NCc1ccccc1)c1cc(Cl)ccc1O (stereo not drawn) [MMV665789] | 95 | EC50 ([2]; source GNF): 592 nM
22 |  | CCOc1ccc(CCNC(=O)c2cccs2)cc1OCC [MMV007978] | 95 | EC50 [2, 3]: 890 nM
23 |  | COc1ccc(C2N(C)c3ccccc3N2C)cc1 [MMV666075] | 62 | EC50 ([2]; source StJude): 15000 nM
24 | 1090 | COc1cccc(NC(=O)Cn2c(C)c(C#N)c3ccccc32)c1 [MMV665826] | 95 | EC50 ([2]; source GNF): 79.6 nM; EC50 ([2]; source GSK): 878 nM
25 |  | COCCn1c(C)nc2ccccc2c1=O [MMV665904] | 59 | EC50 [2, 3]: 1460 nM
26 | 697 | Cc1cc(C)c2nc(N3CCC(C(=O)NCCCN4CCC(N5CCCCC5)CC4)CC3)sc2c1 [MMV019780] | 98 | EC50 ([2]; source GSK): 838 nM
27 |  | COc1ccc(-c2nonc2NC(=O)c2cccc(Cl)c2)cc1OC [MMV020660] |  | % inh. At 2.5 uM ([1]; 2.5 uM (Comment column; solubility issue at 5 uM)): 97%; EC50 [2, 3]: 876 nM
28 | 4000 | CCCCc1c(C)nc2c(OC)cccc2c1O [MMV006820] |  | inhibition of growth at 2 µM [1]: 92%; EC50 [2, 3]: 1690 nM
29 | 450 | O=C(Nc1ccc(-c2nc3cc4ccccc4cc3[nH]2)cc1)c1cccc(Br)c1 [MMV019241] | 93 | EC50 ([2]; source GSK (TCMDC ids)): 363 nM
30 |  | O=C(NC1CCCC1)c1ccc(N2CCC(NCc3cccc(C(F)(F)F)c3)CC2)cc1 [MMV666070] | 93 | EC50 ([2]; source GSK): 1330 nM
31 | 216 | CCOC(=O)c1c(C)n(-c2ccc(Cl)cc2)c2ccc(OC(=O)C=Cc3ccccc3)cc12 [MMV666600] | 97 | EC50 ([2]; source GSK (TCMDC id)): 698 nM
32 | 614 | Cc1sc2ncnc(Sc3nc4ccccc4[nH]3)c2c1C [MMV019266] | 100 | EC50 [2, 3]: 255 nM
33 |  | COc1ccc(C)c2sc(N(Cc3cccnc3)C(=O)c3ccc(C#N)cc3)nc12 [MMV001241] | 91 | EC50 ([2]; source StJude (SJ ids)): 15000 nM
34 | 1290 | C=CCc1c(C)nc2ccccc2c1O [MMV006913] | 85 | EC50 [2, 3]: 707 nM
35 | 969 | COc1ccc2nc(C)cc(Nc3cccc(O)c3)c2c1 [MMV008212] | 98 | EC50 [2, 3]: 228 nM
36 | 683 | Cc1cc(N2CCN(C3CCCC3)CC2)n2c(nc3ccccc32)c1C#N [MMV006706] |  | EC50 [2, 3]: 743 nM
37 |  | Cc1ccc(OCCCCCCNCCO)c(C)c1 [MMV666020] | 49 | EC50 ([2]; source GNF (GNF-Pf ids)): 1970 nM
38 | 1700 | CCOc1ccc(-n2cc(-c3ccccc3)c3c(SCc4cc(C)ccc4C)ncnc32)cc1 [MMV085471] | 97 | EC50 ([2]; source GNF (GNF-Pf ids)): 2010 nM
39 | 304 | Cc1cccc(N2C(=O)C3C(C2=O)C2(c4ccccc4)C(=O)C3(c3ccccc3)C(c3ccc4c(c3)OCO4)=C2c2ccc3c(c2)OCO3)c1 (stereo not drawn) [MMV007228] | 94 | EC50 [2, 4]: 1070 nM
40 | 205 | CCOC(=O)c1cn(CC)c2cc(N(C)CCc3ccc(OC)c(OC)c3)c(F)cc2c1=O [MMV665977] | 99 | EC50 ([2]; source GNF (GNF-Pf id)): 103 nM; EC50 ([2]; source GSK (TCMDC id)): 425 nM

Row | EC50 [1] [nM] | Structure (SMILES) | inhibition of growth at 5 µM [1] [%] | further results
41 | 448 | COc1ccc(-c2nc(NC(=O)CS(=O)(=O)c3ccc(F)cc3)sc2C)cc1 [MMV665915] | 97 | EC50 ([2]; source GNF (GNF-Pf id)): 212 nM; EC50 ([2]; source GSK (TCMDC id)): 243 nM
42 | 1000 | CC1CC2=C(CC1CNCCCN(C)C)C(C)(C)CCC2 (stereo not drawn) [MMV665830] | 98 | EC50 [2, 4]: 250 nM
43 | 196 | CCCN(CCC)CC(O)COc1ccccc1C(=O)Nc1ccccc1 (stereo not drawn) [MMV006455] | 98 | EC50 ([2]; source GNF (GNF-Pf id)): 365 nM; EC50 ([2]; source GSK (TCMDC id)): 799 nM
44 | 4000 | CCOc1ccc2nc(C)cc(Nc3ccc(N(C)C)cc3)c2c1 [MMV007020] |  | inhibition of growth at 2 µM [1]: 94%; EC50 [2, 4]: 344 nM
45 |  | COc1ccc(-c2cc3c(nn2)-c2ccccc2C3=O)cc1 [MMV666026] | 97 | EC50 ([2]; source GNF (GNF-Pf ids)): 3840 nM
46 | 140 | COc1ccccc1CNC(=O)CCn1c(=O)[nH]c2ccsc2c1=O [MMV019066] | 67 | EC50 ([2]; source GSK (TCMDC id)): 1040 nM
47 |  | CCN(CC)CCCNc1ccnc2cc3ccccc3cc12 [MMV665783] | 90 | EC50 ([2]; source GNF (GNF-Pf ids)): 33.8 nM
48 | 467 | COc1ccc(Nc2cc(C)nc(NCc3ccccc3)n2)cc1 [MMV006825] |  | EC50 [2, 4]: 151 nM
49 |  | Cc1cc(=O)oc2c1ccc1oc(C(=O)c3ccccc3)c(C)c12 [MMV006753] | 94 | EC50 ([2]; source GNF (GNF-Pf ids)): 441 nM
50 | 293 | OC(CNC1CCCCC1)Cn1c2ccccc2c2ccccc21 (stereo not drawn) [MMV009063] | 93 | EC50 ([2]; source GNF (GNF-Pf id)): 483 nM; EC50 ([2]; source GSK (TCMDC id)): 991 nM
51 |  | CCN(CC)c1ccc(NC(=O)c2cccs2)cc1 [MMV009060] | 88 | EC50 ([2]; source GNF): 414 nM
52 |  | COc1ccc(C(O)(CCC(C)C)C(CN2CCOCC2)c2ccc(Cl)cc2)cc1 (stereo not drawn) [MMV000617] | 97 | EC50 ([2]; source StJude (SJ ids)): 4610 nM
53 | 1220 | COc1cc(C(=O)Nc2ccc(-c3nc4ccccc4[nH]3)cc2)cc(OC)c1OC [MMV665898] | 95 | EC50 [2, 4]: 982 nM
54 |  | CCN(CC)c1cc(C)c2cc(NC(=O)c3cccc(OC)c3)ccc2n1 [MMV000498] | 97 | EC50 ([2]; source StJude): 4770 nM
55 | 662 | Cc1cc(Nc2cccc(F)c2)nc(NCc2ccccc2)n1 [MMV006319] |  | inhibition of growth at 2 µM [1]: 97%; EC50 [2, 3]: 72.2 nM
56 | 58.1 | CCN(CC)CCNc1ccnc2cc(Cl)ccc12 [MMV006087] |  | EC50 ([2]; source GNF (GNF-Pf id)): 7.16 nM
57 | 242 | CCCc1c(CC)c(=N)c2ccccc2n1C [MMV008416] | 69 | EC50 ([2]; source GNF (GNF-Pf id)): 762 nM
58 |  | Cn1c(C(=O)c2cccc3ccccc23)nc2ccccc21 [MMV665824] | 89 | EC50 ([2]; source GNF): 6.92 nM
59 | 473 | CC(C)CCNCC(O)Cn1c2ccccc2c2ccccc21 (stereo not drawn) [MMV006787] | 97 | EC50 ([2]; source GNF (GNF-Pf ids)): 201 nM
60 | 6.71 | Cc1cc(Nc2ccc(C)c(Cl)c2)n2nc(C(F)(F)F)nc2n1 [MMV665874] | 98 | EC50 ([2]; source GSK (TCMDC id)): 15.8 nM
